Key:
[1] = design: species or system rhesus monkeys (Macaca mulatta); settings: rhesus monkey, in vivo, 2.2 mg/kg/day
Text: Study 1. Lutein and Zeaxanthin Supplementation Study. Eighteen rhesus monkeys (Macaca mulatta) were reared on one of two semipurified diets, both of which contained adequate levels of all known nutrients, but no detectable xanthophylls as analyzed by our laboratory. The animals also received limited amounts of very low xanthophyll foods such as wheat or rice cereals, white rice, sweetened drinks and gelatin, pineapple and banana.
Beginning at 7-16 years of age, 6 of these monkeys were supplemented with pure lutein and 6 with pure zeaxanthin, at 3.9 μmol/kg/day (2.2 mg/kg/day). The lutein and zeaxanthin supplements were purified or synthesized by DSM Nutritional Products, Ltd. The supplements were inserted into marshmallows, sweetened gelatin or small pieces of fruit. Beadlets and individual supplement doses were stored at 4° C. in the dark. […]
Biopsy punches were used to dissect the central retina, containing the macula, into a 4 mm diameter circle centered on the fovea. Retinal tissue was analyzed for carotenoids as described previously (1). Cerebellum and occipital cortex samples were collected and analyzed for carotenoids as described by Park et al. (2). […]
Relationships between retina and brain tissue were evaluated using Pearson's correlation coefficients. For those relationships with sample size >6, p values were calculated.

[2] = elderly population of healthy 65 year olds; cited from earlier work
cognitive function = settings: healthy older adults, intervention trial (Johnson et al. 2008); cited from earlier work

Row | Structure (SMILES) | Carotenoids found in brain tissue [1] | Average plasma level [2] | Effect of supplementation on cognitive function (cognitive function)
1 | CC1=C(/C=C/C(C)=C/C=C/C(C)=C/C=C/C=C(C)/C=C/C=C(C)/C=C/C2=C(C)C[C@@H](O)CC2(C)C)C(C)(C)C[C@H](O)C1 [Zeaxanthin] | the only carotenoid measured in brain tissue | 0.032 ± 0.021 µM | 
2 | CC1=C[C@H](O)CC(C)(C)[C@H]1/C=C/C(C)=C/C=C/C(C)=C/C=C/C=C(C)/C=C/C=C(C)/C=C/C1=C(C)C[C@@H](O)CC1(C)C [Lutein] | the only carotenoid measured in brain tissue | 0.27 ± 0.15 µM | improve cognitive function
